From patent US12441704B2, “Compounds active towards nuclear receptors” (NUEVOLUTION A/S, priority 2019, dated 2025)
Read-outs that look alike come from different tables or passages of the source.

How the values were obtained:
[1] = molecular target: T1, RORγ ligand-binding domain fused to Gal4 (Homo sapiens, UniProt P51449); assay: RORγ Reporter Assay (Gal4); format: cell-based
T1 construct: Gal4 (galactose-responsive transcription factor); expressed in transfected cells; host or cells: HEK293
T1 sequence (P51449 269-508 limits assumed): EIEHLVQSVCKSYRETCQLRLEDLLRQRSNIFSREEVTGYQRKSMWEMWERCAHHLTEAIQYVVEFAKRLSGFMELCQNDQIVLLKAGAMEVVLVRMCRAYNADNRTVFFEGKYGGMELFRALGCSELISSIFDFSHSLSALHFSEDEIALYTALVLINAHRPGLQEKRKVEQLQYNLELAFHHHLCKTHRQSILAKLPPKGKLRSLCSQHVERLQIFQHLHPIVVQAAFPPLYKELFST
Method: The HEK293 cell line is co-transfected transiently with two plasmids, one with the RORγ ligand-binding domain fused to galactose-responsive transcription factor (Gal4), and the other with the luciferase reporter gene and Gal binding sites (UAS). This construction allows to determine the RORγ activity in a cellular system through the measurement of luminescence.
A suspension of RORγ reporter cells was dispensed into plates and cultured 2 h at 37° C. and 5% CO2. Media formulation consisted in DMEM/F-12 medium (Gibco) supplemented with 10% heat inactivated FBS (Sigma-Aldrich), non-essential aminoacids (Sigma-Aldrich), 2 mM Glutamax (Gibco) and 100 U/mL penicillin (Sigma-Aldrich). Dose-response curves with compounds were prepared in 100% DMSO and further diluted 100-fold in culture medium. Compound solutions were added to the plate containing cells (final DMSO concentration of 0.1%) and incubated for 24 h at 37° C. and 5% CO2. Luciferase detection reagent was added to each well, and relative light units (RLUs) were quantified from each assay well using a plate reading luminometer.
Values of average RLU±S.D. were computed for all treatment sets, followed by the calculations of percent-reduction of RORγ activity in response to respective test compound. The following formula was used: activity=100*[1−[x test compound/average vehicle] where the theoretical minimum reduction (0% reduction).

[2] = test system: IL-17A secretion in activated PBMCs; assay: IL-17A secretion in activated PBMCs; format: cell-based, human; settings: human PBMCs stimulated with CD3/CD28 Dynabeads for 48 h, absolute IC50
Method: Heparin-treated whole blood from healthy human volunteers was supplied from Hospital de Sant Pau (Barcelona) under the approval of the local ethical review board for human studies (Hospital de Sant Pau, Barcelona, Spain). Human peripheral blood mononuclear cells (PBMCs) were isolated from healthy human volunteers by density gradient centrifugation using the Ficoll-Paque (GE Healthcare). […] Cells were seeded in 384-well plate (DiscoverX), at 40,000 cells per well and cultured 2 h at 37° C. and 5% CO2.
Dose-response curves with compounds were prepared using a 5-fold serial dilution (10 concentrations) in 100% DMSO and further diluted 100-fold in culture medium. Compound solutions (5 μL) were added to the plate containing cells (final DMSO concentration of 0.1%) and incubated for 30 min. Then, cells were stimulated with CD3/CD28 Dynabeads (ThermoFisher, at a bead-to-cell ratio of 1:1) for 48 h at 37° C. and 5% CO2.
IL-17A levels in supernatant were determined by immunoassay using hIL17A QBeads (Intellicyt) and by fluorescence analysis in iQue flow cytometer following the manufacturer's instructions. Inhibition of IL-17A secretion was calculated using the following formula: inhibition=100*[1−[(x−mean basal condition)/(mean top condition−mean basal condition)]]. Activated DMSO-treated cells were used as top condition and activated GNE09461 (10 μM)-treated cells as basal condition.

[3] = HEK293 cells co-transfected with RORγ LBD-Gal4 and luciferase reporter, 24 h incubation, absolute EC50, read-out: EC50

Compound	EC50 [1, 3] [µM]	IC50 ([2]; Homo sapiens, PBMC, 48 h) [µM]	also measured
NC(=O)CN1CCC(CO)(CNc2ncnc(N(Cc3ccc(C(F)(F)F)cc3)C3CC3)c2F)CC1 [Example A7-51, 2-(4-(((6-(cyclopropyl(4-(trifluoromethyl)benzyl)amino)-5-fluoropyrimidin-4-yl)amino)methyl)-4-(hydroxymethyl)piperidin-1-yl)acetamide]	0.0024	0.0073	–
Cc1cc(C(F)(F)F)ccc1CN(c1ncnc(NCC2CCN(CC(N)=O)CC2)c1F)C1CC1 [Example A7-02, 2-(4-(((6-(cyclopropyl(2-methyl-4-(trifluoromethyl)benzyl)amino)-5-fluoropyrimidin-4-yl)amino)methyl)piperidin-1-yl)acetamide]	0.076	0.058	–
CCN(Cc1ccc(C(F)(F)F)cc1)c1ncnc(NC[C@@H]2CCN(C(C)(C)C(N)=O)C[C@H]2O)c1F (relative stereo) [Example A7-57, rel-2-((3R,4R)-4-(((6-(ethyl(4-(trifluoromethyl)benzyl)amino)-5-fluoropyrimidin-4-yl)amino)methyl)-3-hydroxypiperidin-1-yl)-2-methylpropanamide]	–	0.039	–
NC(=O)CN1CC[C@@H](CNc2ncnc(N(Cc3ccc(C(F)(F)F)cc3)C3CC3)c2F)[C@H](O)C1 (stereo in doubt) [Example A7-01, rac-2-((3R,4R)-4-(((6-(Cyclopropyl(4-(trifluoromethyl)benzyl)amino)-5-fluoropyrimidin-4-yl)amino)methyl)-3-hydroxypiperidin-1-yl)acetamide]	–	0.0087	–
[2H]C([2H])([2H])N(Cc1ccc(C(F)(F)F)cc1)c1ncnc(NC[C@@H]2CCN(CC(N)=O)C[C@H]2O)c1F (racemic) [Example A7-60, rac-2-((3R,4R)-4-(((5-fluoro-6-((methyl-d3)(4-(trifluoromethyl)benzyl)amino)pyrimidin-4-yl)amino)methyl)-3-hydroxypiperidin-1-yl)acetamide]	–	0.087	–
NC(=O)CN1CC[C@@H](CNc2ncnc(N(Cc3ccc(-n4cccn4)cc3)C3CC3)c2F)[C@H](O)C1 (racemic) [Example A7-86, rac-2-((3R,4R)-4-(((6-((4-(1H-pyrazol-1-yl)benzyl)(cyclopropyl)amino)-5-fluoropyrimidin-4-yl)amino)methyl)-3-hydroxypiperidin-1-yl)acetamide]	–	0.055	–
Cn1cc(-c2ccc(CN(c3ncnc(NC[C@]4(O)CCN(CC(N)=O)C[C@H]4O)c3F)C3CC3)c(F)c2)cn1 (single isomer, unassigned) [Example D5-05-1]	–	–	IC50 [2]: 0.023 µM
CCN(Cc1ccc(C(F)(F)F)cn1)c1ncnc(NC[C@@H]2CCN(CC(N)=O)C[C@H]2O)c1F (racemic) [Example A7-27, rac-2-((3R,4R)-4-(((6-(ethyl((5-(trifluoromethyl)pyridin-2-yl)methyl)amino)-5-fluoropyrimidin-4-yl)amino)methyl)-3-hydroxypiperidin-1-yl)acetamide]	0.54	–	–
CN(Cc1cccc(OC(F)(F)F)c1)c1ncnc(NC[C@@H]2CCN(CC(N)=O)C[C@H]2O)c1F (racemic) [Example F2-07, rac-2-((3R,4R)-4-(((5-fluoro-6-(methyl(3-(trifluoromethoxy)benzyl)amino)pyrimidin-4-yl)amino)methyl)-3-hydroxypiperidin-1-yl)acetamide]	–	–	EC50 ([1]; compounds of the present disclosure, value from Table 2 herein, read-out: Gal4 assay EC50): < 0.1 µM
NC(=O)CN1CCC(CNc2ncnc(N(Cc3ccc(C(F)(F)F)cc3)C3CC3)c2F)C(C(F)(F)F)C1 (single isomer, unassigned) [Example A7-07-4, 2-(4-(((6-(cyclopropyl(4-(trifluoromethyl)benzyl)amino)-5-fluoropyrimidin-4-yl)amino)methyl)-3-(trifluoromethyl)piperidin-1-yl)acetamide]	0.17	–	–
CN(Cc1ccc(C(F)(F)F)cc1)c1ncnc(NC[C@H]2CCN(CC(N)=O)C[C@@H]2O)c1F (single isomer, unassigned) [Example A7-20-1]	0.035	–	–
NC(=O)CN1CC[C@H](CNc2ncnc(N(Cc3ccc(C(F)(F)F)cc3)C3CC3)c2F)[C@@H](F)C1 (single isomer, unassigned) [Example A7-05-1]	–	–	EC50 ([1]; compounds of the present disclosure, source: Table 2 herein, read-out: Gal4 assay EC50): < 0.1 µM
NC(=O)CN1CCC(CNc2ncnc(N(Cc3ccc(C(F)(F)F)cn3)C3CC3)c2F)CC1 [Example A7-35, 2-(4-(((6-(cyclopropyl((5-(trifluoromethyl)pyridin-2-yl)methyl)amino)-5-fluoropyrimidin-4-yl)amino)methyl)piperidin-1-yl)acetamide]	0.31	–	–
COC(=O)C1(CNc2ncnc(N(Cc3ccc(C(F)(F)F)cc3)C3CC3)c2F)CCN(CC(N)=O)CC1 [Example A7-08, methyl 1-(2-amino-2-oxoethyl)-4-(((6-(cyclopropyl(4-(trifluoromethyl)benzyl)amino)-5-fluoropyrimidin-4-yl)amino)methyl)piperidine-4-carboxylate]	0.015	–	–
Cc1cc(CN(c2ncnc(NCC3CCN(CC(N)=O)CC3)c2F)C2CC2)c(C)cc1Cl [Example A7-46, 2-(4-(((6-((4-chloro-2,5-dimethylbenzyl)(cyclopropyl)amino)-5-fluoropyrimidin-4-yl)amino)methyl)piperidin-1-yl)acetamide]	> 1	–	–

Continued, in another order:

EC50 [1, 3] [µM]	Compound	IC50 ([2]; Homo sapiens, PBMC, 48 h) [µM]	also measured
0.0015	NC(=O)CN1CC[C@H](CNc2ncnc(N(Cc3ccc(C(F)(F)F)cc3)C3CC3)c2F)[C@@H](O)C1 (stereo in doubt) [Example A7-01-2, rel-2-((3R,4R)-4-(((6-(Cyclopropyl(4-(trifluoromethyl)benzyl)amino)-5-fluoropyrimidin-4-yl)amino)methyl)-3-hydroxypiperidin-1-yl)acetamide]	0.0027	–
0.0066	NC(=O)CN1CC[C@@H](CNc2ncnc(N(Cc3ccc(-n4cccn4)cc3F)C3CC3)c2F)[C@H](O)C1 (racemic) [Example A7-76, rac-2-((3R,4R)-4-(((6-(cyclopropyl(2-fluoro-4-(1H-pyrazol-1-yl)benzyl)amino)-5-fluoropyrimidin-4-yl)amino)methyl)-3-hydroxypiperidin-1-yl)acetamide]	0.092	–
0.12	NC(=O)CN1CC[C@@H](CNc2ncnc(N(Cc3ccc(C(F)(F)F)cn3)C3CCC3)c2F)[C@H](O)C1 (racemic) [Example A7-24, rac-2-((3R,4R)-4-(((6-(cyclobutyl((5-(trifluoromethyl)pyridin-2-yl)methyl)amino)-5-fluoropyrimidin-4-yl)amino)methyl)-3-hydroxypiperidin-1-yl)acetamide]	–	–
0.0049	NC(=O)CN1CC[C@H](CNc2ncnc(N(Cc3ccc(C(F)(F)F)cc3F)C3CC3)c2F)[C@@H](O)C1 (single isomer, unassigned) [Example A7-22-1]	–	–
0.32	NC(=O)CN1CC[C@H](CNc2ncnc(N(Cc3ccc(C(F)F)nc3)C3CC3)c2F)[C@@H](O)C1 (stereo in doubt) [Example A7-25-2, rel-2-((3R,4R)-4-(((6-(cyclopropyl((6-(difluoromethyl)pyridin-3-yl)methyl)amino)-5-fluoropyrimidin-4-yl)amino)methyl)-3-hydroxypiperidin-1-yl)acetamide]	–	–
0.025	NC(=O)CN1CC[C@@H](CNc2ncnc(N(Cc3ccc(C(F)(F)F)cc3)C3CCC3)c2F)[C@H](O)C1 (single isomer, unassigned) [Example A7-16-1]	–	–
0.13	NC(=O)CN1CC[C@H](CNc2ncnc(N(Cc3cnc(C(F)(F)F)nc3)C3CCC3)c2F)[C@@H](O)C1 (racemic) [Example A7-18, rac-2-((3R,4R)-4-(((6-(cyclobutyl((2-(trifluoromethyl)pyrimidin-5-yl)methyl)amino)-5-fluoropyrimidin-4-yl)amino)methyl)-3-hydroxypiperidin-1-yl)acetamide]	–	–
